A word on the melting point: it is the temperature of the solid-liquid transition.

Results on two compounds are retold here after patent publication US6555548B2, “Compounds for treating fibromyalgia and chronic fatigue syndrome” (Pharmacia & Upjohn Company, priority 2000, dated 2003).

For the compound `CN[C@@H]1Cc2cccc3[nH]c(=S)n(c23)C1`, the melting point fell in the range of 210 to 213 °C.

For the compound `CN[C@@H]1Cc2cccc3[nH]c(=S)n(c23)C1.O=C(O)/C=C\C(=O)O`, the melting point was 195 to 196 °C.
